# pIC50: −log10 of the molar value.
# Target: T1, TNIK (Homo sapiens, UniProt Q9UKE5)
# T1 construct: purchased Promega V4158
# Test: ADP-Glo Kinase Assay, inhibition activity on TNIK
# Assay type: biochemical
# Details: not given
# Description: The inhibition activities on TNIK, IKKε and TBK1 were measured by a luminometer, TNIK/IKKε/TBK1 Kinase Enzyme System (Promega, Ca# V4158; Invitrogen, PR8031B, Promega, Ca# V3991) and ADP-Glo Kinase Assay using ADP-Glo™ Kinase Analysis Kit (Promega, Ca# V9101) and a kinase reaction buffer [40 mM Tris(pH 7.5), 20 mM MgCl2, 0.1 mg/mL BSA] in accordance with the manufacturer's protocol.
# T1 sequence (Q9UKE5 1-367 limits assumed): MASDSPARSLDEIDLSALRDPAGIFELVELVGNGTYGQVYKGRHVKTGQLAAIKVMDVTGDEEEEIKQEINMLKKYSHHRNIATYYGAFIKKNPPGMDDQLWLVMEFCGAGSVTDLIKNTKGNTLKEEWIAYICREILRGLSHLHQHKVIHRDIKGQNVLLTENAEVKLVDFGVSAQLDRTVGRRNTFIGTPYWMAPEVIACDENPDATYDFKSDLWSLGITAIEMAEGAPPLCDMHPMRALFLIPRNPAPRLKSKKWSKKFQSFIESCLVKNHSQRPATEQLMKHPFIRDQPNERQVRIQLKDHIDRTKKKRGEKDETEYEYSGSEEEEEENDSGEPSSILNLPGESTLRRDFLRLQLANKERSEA
row,SMILES,TNIK (μM)
1,"Nc1ccc(-c2ccc(F)cc2)c2c1C(=O)NC2 [Example 61, 7-Amino-4-(4-fluorophenyl)isoindolin-1-one]",Insoluble
2,"CN(C)c1cccc(C(=O)Nc2ccc(-c3ccccc3)c3c2C(=O)NC3)c1 [Example 95, 3-(Dimethylamino)-N-(3-oxo-7-phenylisoindolin-4-yl) benzamide]",Insoluble
3,"COc1ccc(C(=O)Nc2ccc(-c3ccccc3)c3c2C(=O)NC3)cc1OC [Example 102, 3,4-Dimethoxy-N-(3-oxo-7-phenylisoindolin-4-yl)benzamide]",Insoluble

# More lines, now with the values ahead:
row,TNIK (μM),SMILES
1,Insoluble,"O=C(Nc1ccc(-c2ccccc2)c2c1C(=O)NC2)c1ccc(Cl)c(Cl)c1 [Example 104, 3,4-Dichloro-N-(3-oxo-7-phenylisoindolin-4-yl)benzamide]"
2,Insoluble,"O=C(Nc1ccc(-c2ccccc2)c2c1C(=O)NC2)c1ccc([N+](=O)[O-])cc1 [Example 119, 4-Nitro-N-(3-oxo-7-phenylisoindolin-4-yl)benzamide]"

# Same assay, conditions: read-out: TNIK
row,SMILES,pIC50
1,"O=C(Nc1ccc(-c2cccc(Cl)c2F)c2c1C(=O)NC2)c1ccccc1 [Example 50, N-(7-(3-chloro-2-fluorophenyl)-3-oxoisoindolin-4-yl)benzamide]",< 4.70
2,"O=C(Nc1ccc(-c2cncs2)c2c1C(=O)NC2)c1ccccc1 [Example 51, N-(3-oxo-7-(thiazol-5-yl)isoindolin-4-yl)benzamide]",6.36
3,"O=C(Nc1ccc(-c2cscn2)c2c1C(=O)NC2)c1ccccc1 [Example 52, N-(3-oxo-7-(thiazol-4-yl)isoindolin-4-yl)benzamide]",5.55
4,"O=C(Nc1ccc(-c2nccs2)c2c1C(=O)NC2)c1ccccc1 [Example 53, N-(3-oxo-7-(thiazol-2-yl)isoindolin-4-yl)benzamide]",5.63
5,"O=C(Nc1ccc(-c2c[nH]cn2)c2c1C(=O)NC2)c1ccccc1 [Example 54, N-(7-(1H-imidazol-4-yl)-3-oxoisoindolin-4-yl)benzamide]",5.42
6,"O=C(Nc1ccc(-c2cn[nH]c2)c2c1C(=O)NC2)c1ccccc1 [Example 55, N-(3-oxo-7-(1H-pyrazol-4-yl)isoindolin-4-yl)benzamide]",5.34
7,"Cn1cncc1-c1ccc(NC(=O)c2ccccc2)c2c1CNC2=O [Example 56, N-(7-(1-methyl-1H-imidazol-5-yl)-3-oxoisoindolin-4-yl) benzamide]",5.66
8,"Cn1cc(-c2ccc(NC(=O)c3ccccc3)c3c2CNC3=O)cn1 [Example 57, N-(7-(1-methyl-1H-pyrazol-4-yl)-3-oxoisoindolin-4-yl) benzamide]",5.66
9,"O=C(Nc1ccc(-c2ncn[nH]2)c2c1C(=O)NC2)c1ccccc1 [Example 58, N-(3-oxo-7-(1H-1,2,4-triazol-5-yl)isoindolin-4-yl)benzamide]",5.57
10,"Cn1ncnc1-c1ccc(NC(=O)c2ccccc2)c2c1CNC2=O [Example 59, N-(7-(1-methyl-1H-1,2,4-triazol-5-yl)-3-oxoisoindolin-4-yl) benzamide]",< 4.70
11,"COc1ccc(-c2ccc(N)c3c2CNC3=O)cc1 [Example 60, 7-Amino-4-(4-methoxyphenyl)isoindolin-1-one]",< 4.70
12,"Nc1ccc(-c2ccc(Cl)cc2)c2c1C(=O)NC2 [Example 62, 7-Amino-4-(4-chlorophenyl)isoindolin-1-one]",< 4.70
13,"Cc1ccc(-c2ccc(N)c3c2CNC3=O)cc1 [Example 63, 7-Amino-4-(p-tolyl)isoindolin-1-one]",< 4.70
14,"CC(=O)c1ccc(-c2ccc(N)c3c2CNC3=O)cc1 [Example 64, 4-(4-Acetylphenyl)-7-aminoisoindolin-1-one]",< 4.70
15,"Nc1ccc(-c2ccncc2)c2c1C(=O)NC2 [Example 65, 7-Amino-4-(pyridin-4-yl)isoindolin-1-one]",< 4.70
16,"Cc1ccccc1C(=O)Nc1ccc(-c2ccccc2)c2c1C(=O)NC2 [Example 87, 2-Methyl-N-(3-oxo-7-phenylisoindolin-4-yl)benzamide]",4.84
17,"Cc1cccc(C(=O)Nc2ccc(-c3ccccc3)c3c2C(=O)NC3)c1 [Example 88, 3-Methyl-N-(3-oxo-7-phenylisoindolin-4-yl)benzamide]",5.55
18,"Cc1ccc(C(=O)Nc2ccc(-c3ccccc3)c3c2C(=O)NC3)cc1 [Example 89, 4-Methyl-N-(3-oxo-7-phenylisoindolin-4-yl)benzamide]",6.11
19,"O=C(Nc1ccc(-c2ccccc2)c2c1C(=O)NC2)c1cccc(Cl)c1 [Example 90, 3-Chloro-N-(3-oxo-7-phenylisoindolin-4-yl)benzamide]",< 4.70
20,"O=C(Nc1ccc(-c2ccccc2)c2c1C(=O)NC2)c1ccc(F)cc1F [Example 91, 2,4-Difluoro-N-(3-oxo-7-phenylisoindolin-4-yl)benzamide]",< 4.70
21,"O=C(Nc1ccc(-c2ccccc2)c2c1C(=O)NC2)c1ccc(F)c(F)c1 [Example 92, 3,4-Difluoro-N-(3-oxo-7-phenylisoindolin-4-yl)benzamide]",< 4.70
22,"Cc1ccc(C(=O)Nc2ccc(-c3ccccc3)c3c2C(=O)NC3)cc1C [Example 93, 3,4-Dimethyl-N-(3-oxo-7-phenylisoindolin-4-yl)benzamide]",5.96
23,"CN(C)c1ccccc1C(=O)Nc1ccc(-c2ccccc2)c2c1C(=O)NC2 [Example 94, 2-(Dimethylamino)-N-(3-oxo-7-phenylisoindolin-4-yl) benzamide]",< 4.70
24,"CSc1ccccc1C(=O)Nc1ccc(-c2ccccc2)c2c1C(=O)NC2 [Example 96, 2-(Methylthio)-N-(3-oxo-7-phenylisoindolin-4-yl)benzamide]",5.15
25,"CSc1cccc(C(=O)Nc2ccc(-c3ccccc3)c3c2C(=O)NC3)c1 [Example 97, 3-(Methylthio)-N-(3-oxo-7-phenylisoindolin-4-yl)benzamide]",< 4.70
26,"CS(=O)(=O)c1ccccc1C(=O)Nc1ccc(-c2ccccc2)c2c1C(=O)NC2 [Example 98, 2-(Methylsulfonyl)-N-(3-oxo-7-phenylisoindolin-4-yl) benzamide]",4.98
27,"CS(=O)(=O)c1cccc(C(=O)Nc2ccc(-c3ccccc3)c3c2C(=O)NC3)c1 [Example 99, 3-(Methylsulfonyl)-N-(3-oxo-7-phenylisoindolin-4-yl) benzamide]",5.37
28,"CS(=O)(=O)c1ccc(C(=O)Nc2ccc(-c3ccccc3)c3c2C(=O)NC3)cc1 [Example 100, 4-(Methylsulfonyl)-N-(3-oxo-7-phenylisoindolin-4-yl) benzamide]",< 4.70
29,"COc1ccc(C(=O)Nc2ccc(-c3ccccc3)c3c2C(=O)NC3)c(OC)c1 [Example 101, 2,4-Dimethoxy-N-(3-oxo-7-phenylisoindolin-4-yl)benzamide]",< 4.70
30,"O=C(Nc1ccc(-c2ccccc2)c2c1C(=O)NC2)c1ccc(Cl)cc1Cl [Example 103, 2,4-Dichloro-N-(3-oxo-7-phenylisoindolin-4-yl)benzamide]",< 4.70

# Next, values leading:
row,pIC50,SMILES
1,< 4.70,"Cc1ccc(C(=O)Nc2ccc(-c3ccccc3)c3c2C(=O)NC3)c(C)c1 [Example 105, 2,4-Dimethyl-N-(3-oxo-7-phenylisoindolin-4-yl)benzamide]"
2,< 4.70,"CC(=O)Nc1ccccc1C(=O)Nc1ccc(-c2ccccc2)c2c1C(=O)NC2 [Example 106, 2-Acetamido-N-(3-oxo-7-phenylisoindolin-4-yl)benzamide]"
3,6.32,"CC(=O)Nc1cccc(C(=O)Nc2ccc(-c3ccccc3)c3c2C(=O)NC3)c1 [Example 107, 3-Acetamido-N-(3-oxo-7-phenylisoindolin-4-yl)benzamide]"
4,6.11,"CNc1ccc(C(=O)Nc2ccc(-c3ccccc3)c3c2C(=O)NC3)cc1 [Example 108, 4-(Methylamino)-N-(3-oxo-7-phenylisoindolin-4-yl)benzamide]"
5,< 4.70,"Cc1ccsc1C(=O)Nc1ccc(-c2ccccc2)c2c1C(=O)NC2 [Example 109, 3-Methyl-N-(3-oxo-7-phenylisoindolin-4-yl)thiophene-2-carboxamide]"
6,< 4.70,"Cc1csc(C(=O)Nc2ccc(-c3ccccc3)c3c2C(=O)NC3)c1 [Example 110, 4-Methyl-N-(3-oxo-7-phenylisoindolin-4-yl)thiophene-2-carboxamide]"
7,6.27,"Cc1ccc(C(=O)Nc2ccc(-c3ccccc3)c3c2C(=O)NC3)s1 [Example 111, 5-Methyl-N-(3-oxo-7-phenylisoindolin-4-yl)thiophene-2-carboxamide]"
8,5.66,"Cc1ccccc1-c1ccc(NC(=O)c2ccccc2)c2c1CNC2=O [Example 112, N-(3-oxo-7-(o-tolyl)isoindolin-4-yl)benzamide]"
9,5.77,"Cc1cccc(-c2ccc(NC(=O)c3ccccc3)c3c2CNC3=O)c1 [Example 113, N-(3-oxo-7-(m-tolyl)isoindolin-4-yl)benzamide]"
10,< 4.70,"O=C(Nc1ccc(-c2ccccc2C(F)(F)F)c2c1C(=O)NC2)c1ccccc1 [Example 114, N-(3-oxo-7-(2-(trifluoromethyl)phenyl)isoindolin-4-yl) benzamide]"
11,< 4.70,"O=C(Nc1ccc(-c2cccc(C(F)(F)F)c2)c2c1C(=O)NC2)c1ccccc1 [Example 115, N-(3-oxo-7-(3-(trifluoromethyl)phenyl)isoindolin-4-yl) benzamide]"
12,6.89,"CC(=O)Nc1ccc(C(=O)Nc2ccc(-c3ccccc3)c3c2C(=O)NC3)cc1 [Example 116, 4-Acetamido-N-(3-oxo-7-phenylisoindolin-4-yl)benzamide]"
13,5.63,"O=C(Nc1ccc(-c2ccccc2)c2c1C(=O)NC2)c1ccccc1 [Example 117, N-(3-oxo-7-phenylisoindolin-4-yl)benzamide]"
14,< 4.70,"COc1ccc(-c2ccc(NC(=O)c3ccccc3)c3c2CNC3=O)cc1 [Example 118, N-(7-(4-methoxyphenyl)-3-oxoisoindolin-4-yl)benzamide]"
15,< 4.70,"COc1ccc(-c2ccc(NC(=O)c3ccc(NC(C)=O)cc3)c3c2CNC3=O)cc1 [Example 120, 4-Acetamido-N-(7-(4-methoxyphenyl)-3-oxoisoindolin-4-yl) benzamide]"

# Source: patent US9856216B2, “Compounds as TNIK, IKKε and TBK1 inhibitors and pharmaceutical composition comprising same” (GREEN CROSS CORPORATION, priority 2015, dated 2018)
